≈ marks a conversion by molar mass, not a printed value.
Key:
[1] = test system: middle cerebral artery occlusion (MCAO) model; experiment: Anti-stroke effect in middle cerebral artery occlusion (MCAO) model, oral administration before inducing stroke; type: in vivo, rats of SD species; details: 2 g/kg po; for Infarcted volume (Mean ± standard deviation): negative control 0.45 ± 0.03
[2] = test system: superoxide dismutase (SOD); experiment: Increase of superoxide dismutase (SOD) activity in mouse brain cells; type: cell-based; details: 100 μg/ml
Procedure: (§1) ROS inhibitory effect of compounds was represented to the dose suppressing 50% of production of reactive oxygen compared to control. […] The activity of superoxide dismutase (SOD) was measured by using a kit acquired in Sigma.

[3] = test system: pentylentetrazole (PTZ)-induced convulsion; experiment: Anti-convulsant effect, pentylentetrazole (PTZ) test; type: in vivo; details: 10 mg/kg intraperitoneally, PTZ 80 mg/kg subcutaneously; for mortality rate / Induction percentage of convulsion: (animals/total); for mortality rate: negative control 70(17/23); for Induction percentage of convulsion: negative control 100(23/23); for Initiation time of convulsion: negative control 5.0 ± 0.7; for Duration of convulsion: negative control 46.7 ± 3.3
Summary of the method: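 Compound was given intraperitoneally at 10 mg/kg before PTZ challenge. The read-outs were time to convulsion onset, time until convulsions fully disappeared, and mortality.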

[4] = test system: mixed culture of nerve cells-glial cells; experiment: Protecting effect on NMDA-induced nerve cell death (LDH release); type: cell-based, ICR mouse; details: 100 μM NMDA, LDH release after 24 hours
Summary of the method: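 Embryonic day-14 ICR mouse cortical neurons seeded on cortical glia, Ara-C-treated, then exposed at day 12–15 for 20 min to 100 μM NMDA with compound at 1 or 2 μg/mL. LDH released 24 h later measured colorimetrically as a cell-death index.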

[5] = test system: mouse brain cells; experiment: Inhibitory effect on ROS production in brain cells (DCF-DA, NMDA-induced); type: cell-based; details: 24 h; dose suppressing 50% of production of reactive oxygen compared to control; mouse brain cells; read-out: ROS inhibitory effect ID50
Procedure: Oxidative stress was measured to test inhibitory effects on the production of reactive oxygen species (ROS) by using DCF-DA, which is a fluorescent probe. Brain cells were obtained from brain cortex of mouse to prepare cell solution with 2×10^6 cells/ml. Each brain cell was treated with 11 μM of DCF-DA followed by reaction in 37° C., 5% CO2 incubator for an hour. After washing twice, Compound 3 was treated with a concentration of 125 μg/ml and 250 μg/ml. At the same time, 300 μM of NMDA was treated and it was incubated in 37° C., 5% CO2 incubator for 24 hours.
as §1

[6] = test system: thoracic aorta of rats; experiment: Relaxing effect on thoracic aorta contracted by phenylephrine (organ bath); design: species or system rats of SD species; details: Rattus norvegicus; 67 μg/mL; phenylephrine 0.5 μM; mean n = 3; read-out: Relaxation percentage
Summary of the method: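 Thoracic aortic rings (2 mm) from ether-anesthetized male SD rats (250-300 g) were mounted in Krebs buffer gassed with 95% O2/5% CO2 and equilibrated at 1.0 g basal tension for 90 min. After stable contraction with phenylephrine (0.5 μM), compounds were added and relaxation recorded.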

[7] = test system: SH-SY5Y cells; experiment: Inhibitory effect on ZnSO4-mediated cytotoxicity (MTT assay); type: cell-based, humans; details: compound 50 μg/ml; 600 μM zinc sulfate, 24 hours
Procedure: SH-SY5Y cells were cultured with 3×10^4 cell concentration in 96 well plates, and the compound (50 μg/ml) was treated. After 30 minutes, 600 μM of zinc sulfate was treated to induce toxicity for 24 hours and survival rate of cells was measured by MTT assay.

[8] = treatment time 0 (right before inducing ischemic stroke)
[9] = treatment time 1 (an hour before inducing ischemic stroke)

SMILES	Inhibitory percentage compared to negative control [1, 8] [%]	Infarcted volume (Mean ± standard deviation) [1, 8] [cm^3]	Inhibitory percentage compared to negative control [1, 9] [%]	Infarcted volume (Mean ± standard deviation) [1, 9] [cm^3]	Increase of SOD activity, compared to control [2]	mortality rate [3]	Induction percentage of convulsion [3]	Initiation time of convulsion [3] [min]	Duration of convulsion [3] [min]	Inhibitory effect of cell death by NMDA-induced excitable neurotoxicity ([4]; 1 μg/ml compound) [%]	Inhibitory effect of cell death by NMDA-induced excitable neurotoxicity ([4]; 2 μg/ml compound) [%]	IC50 [5] [µg/mL]	inhibition at 67 µg/mL [6] [%]	inhibitory percentage, zinc-induced toxicity [7] [%]
C[N+](C)(C)CCOP(=O)(O)OP(=O)([O-])OC[C@H]1O[C@@H](n2ccc(N)nc2=O)[C@H](O)[C@@H]1O [Citicoline, reference compound]	37.8	0.28 ± 0.04	51.1	0.22 ± 0.03	–	–	–	–	–	–	–	–	–	–
NCCCNCCCCNCCCn1c(=O)[nH]c2ccccc2c1=O [Compound 1, 3-{3-[4-(3-aminopropylamino)butylamino]propyl}-1H-quinazoline-2,4-dione]	–	–	–	–	0.7 ± 5.6	67(4/6) %	83(5/6) %	16.1 ± 9.0	43.9 ± 9.0	16.1	2.4	73 ± 14.1 (≈ 210 µM)	12.8	–
O=c1[nH]c2ccccc2c(=O)n1CCCNCCCCNCCCn1c(=O)[nH]c2ccccc2c1=O [Compound 2, 3-(3-{4-[3-(2,4-dioxo-1,4-dihydro-2H-quinazolin-3-yl)propylamino]butylamino}propyl)-1H-quinazoline-2,4-dione]	–	–	–	–	2.8 ± 4.0	67(4/6) %	100(6/6) %	12.9 ± 3.7	35.7 ± 7.1	11.0	0.7	–	10.9	21.7 ± 4.1
O=c1[nH]c2ccccc2c(=O)n1CCNCCCNCCn1c(=O)[nH]c2ccccc2c1=O [Compound 23, 3-(2-{3-[2-(2,4-dioxo-1,4-dihydro-2H-quinazolin-3-yl)ethylamino]propylamino}ethyl)-1H-quinazoline-2,4-dione]	–	–	–	–	4.0 ± 10	33(2/6) %	100(6/6) %	9.3 ± 2.5	28.7 ± 8.6	36.0	32.2	55.5 ± 27.2 (≈ 123 µM)	20.4	–
O=c1[nH]c2ccccc2c(=O)n1CCCNCC=CCNCCCn1c(=O)[nH]c2ccccc2c1=O [Compound 25, 3-(3-{4-[3-(2,4-dioxo-1,4-dihydro-2H-quinazolin-3-yl)propylamino]-2-butenylamino}propyl)-1H-quinazoline-2,4-dione]	–	–	–	–	1.6 ± 9.3	83(5/6) %	100(6/6) %	6.2 ± 1.5	48.3 ± 5.9	35.2	28.8	104 ± 32.5 (≈ 212 µM)	20	–
CCCCCCN(CCCCN(CCCn1c(=O)[nH]c2ccccc2c1=O)C(=O)OC(C)(C)C)CCCn1c(=O)[nH]c2ccccc2c1=O [Compound 30, [3-(2,4-dioxo-1,4-dihydro-2H-quinazolin-3-yl)propyl]-(4-{[3-(2,4-dioxo-1,4-dihydro-2H-quinazolin-3-yl)propyl]hexylamino}butyl)carbamic acid tert-butyl ester]	–	–	–	–	6.2 ± 6.2	83(5/6) %	83(5/6) %	15.9 ± 9.0	44.1 ± 9.0	38.3	44.4	79.5 ± 15.7 (≈ 117 µM)	40.4	–
O=C(N(CCCCN(CCCn1c(=O)[nH]c2ccccc2c1=O)C(=O)C(F)(F)F)CCCn1c(=O)[nH]c2ccccc2c1=O)C(F)(F)F [Compound 37, N-[3-(2,4-dioxo-1,4-dihydro-2H-quinazolin-3-yl)propyl]-N-{4-[[3-(2,4-dioxo-1,4-dihydro-2H-quinazolin-3-yl)propyl]-(2,2,2-trifluoroacetyl)amino]butyl}-2,2,2-trifluoroacetamide]	–	–	–	–	2.0 ± 5.8	–	–	–	–	27.3	25.0	22.9 ± 17.3 (≈ 33.5 µM)	7.9	–
COCC(=O)N(CCCCNCCCn1c(=O)[nH]c2ccccc2c1=O)CCCn1c(=O)[nH]c2ccccc2c1=O [Compound 38, N-[3-(2,4-dioxo-1,4-dihydro-2H-quinazolin-3-yl)propyl]-N-{4-[3-(2,4-dioxo-1,4-dihydro-2H-quinazolin-3-yl)propylamino]butyl}-2-methoxyacetamide]	–	–	–	–	3.2 ± 4.9	17(1/6) %	83(5/6) %	16.0 ± 9.0	11.2 ± 7.3	33.5	13.5	136 ± 11 (≈ 241 µM)	88.2	–
O=C(OCc1ccccc1)N(CCCCNCCCn1c(=O)[nH]c2ccccc2c1=O)CCCn1c(=O)[nH]c2ccccc2c1=O [Compound 39, [3-(2,4-dioxo-1,4-dihydro-2H-quinazolin-3-yl)propyl]-{4-[3-(2,4-dioxo-1,4-dihydro-2H-quinazolin-3-yl)propylamino]butyl}carbamic acid benzyl ester]	–	–	–	–	19.0 ± 6.3	0(0/6) %	100(6/6) %	9.5 ± 2.8	19.8 ± 6.4	30.8	17.1	32.3 ± 20 (≈ 51.5 µM)	54.8	–
Cc1ccc(S(=O)(=O)N(CCCCN(CCCn2c(=O)[nH]c3ccccc3c2=O)S(=O)(=O)c2ccc(C)cc2)CCCn2c(=O)[nH]c3ccccc3c2=O)cc1 [Compound 41, N-[3-(2,4-dioxo-1,4-dihydro-2H-quinazolin-3-yl)propyl]-N-(4-{[3-(2,4-dioxo-1,4-dihydro-2H-quinazolin-3-yl)propyl]-4-methylbenzenesulfonylamino}butyl)-4-methylbenzenesulfonamide]	–	–	–	–	2.0 ± 0.9	–	–	–	–	–	28.5	27.2 ± 18.6 (≈ 34 µM)	7.1	–
O=C1CCC(=O)N1CCCNCCCCNCCCn1c(=O)[nH]c2ccccc2c1=O [Compound 42, 3-(3-{4-[3-(2,5-dioxo-pyrrolidine-1-yl)propylamino]butylamino}propyl)-1H-quinazoline-2,4-dione]	–	–	–	–	1.6 ± 2.6	17(1/6) %	100(6/6) %	9.8 ± 4.1	18.2 ± 8.6	24.6	21.8	138 ± 21 (≈ 321 µM)	14.6	–

Source: US8404696B2, “Quinazoline-2,4-dione derivative, and medical compositions for the prophylaxis and treatment of cranial nerve disease containing the same” (Shin Poong Pharmaceutical Co., Ltd., priority 2008, dated 2013)
